Assay results taken from ChEMBL document CHEMBL1150525, “Phosphate derivatives of d4T as inhibitors of HIV” (Bioorg Med Chem Lett, 1993).

What was measured:
[1] = Toxic concentration against HIV-1 IIIB in C8166 T-cells; format: ADME, cell-based; conditions: human, read-out: TC50 (the source's name)
C8166 = experiment: Ability to inhibit the replication of HIV-1 IIIB infected C8166 cells; format: functional, cell-based; conditions: Homo sapiens

Row | Compound | CC50 [1] [µM] | EC50 (C8166) [µM]
1 | CCCOP(=O)(OCC1C=CC(n2cc(C)c(=O)[nH]c2=O)O1)OCC(Cl)(Cl)Cl (centres undefined) | 500 | 20
2 | CCCOP(=O)(NC(C)C(=O)OC)OCC1C=CC(n2cc(C)c(=O)[nH]c2=O)O1 (centres undefined) | 250 | 200
3 | CCCOP(=O)(OCCC)OCC1C=CC(n2cc(C)c(=O)[nH]c2=O)O1 (centres undefined) | 200 | > 200
4 | Cc1cn(C2C=CC(COP(=O)(OCC(F)(F)F)OCC(F)(F)F)O2)c(=O)[nH]c1=O (centres undefined) | 500 | 15
5 | COC(=O)C(C)NP(=O)(OCC1C=CC(n2cc(C)c(=O)[nH]c2=O)O1)OCC(Cl)(Cl)Cl (centres undefined) | 500 | 0.2
6 | Cc1cn(C2C=CC(COP(=O)(OCC(Cl)(Cl)Cl)OCC(Cl)(Cl)Cl)O2)c(=O)[nH]c1=O (centres undefined) | 150 | 0.4
7 | Cc1cn([C@H]2C=C[C@@H](CO)O2)c(=O)[nH]c1=O [STAVUDINE] | 50 | 0.08
